From the supplement of paper PMC10307832 come the findings set out here.

What all share (test): relative viability (nuclei count vs DMSO), 5 days (fraction); higher = more cells survive
Compound in assay [1]: O=C(CCCCCCNC(=O)c1cnc(N(c2ccccc2)c2ccccc2)nc1)NO [Ricolinostat] + O=C(c1cc(Cc2n[nH]c(=O)c3ccccc23)ccc1F)N1CCN(C(=O)C2CC2)CC1 [Olaparib] (partner 8 µM)
The procedure, abridged:
(§1)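 Lung cancer cell lines were pin-tool dosed in 1536-well plates on the day after seeding, with either a lone drug or a fixed anchor-drug dose plus five library-drug doses (not always all listed) in √10 steps. Nuclei were counted on 4× images after 5 days. Relative viability is the ratio of treated-well to vehicle-well nuclei counts, with each value a median of duplicate plates.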

Compound in assay [2]: O=C(CCCCCCNC(=O)c1cnc(N(c2ccccc2)c2ccccc2)nc1)NO [Ricolinostat] + N=C(N)NC(=N)NCCc1ccccc1 [Phenformin] (partner 250 µM)
The procedure, abridged:
as §1

Compound in assay [3]: C1=CC=C(C(=C1)C2=CC=C(C=C2)C3=CSC4=C3C(=C(C(=O)N4)C#N)O)O + CC(=O)Nc1cccc(-n2c(=O)n(C3CC3)c(=O)c3c(Nc4ccc(I)cc4F)n(C)c(=O)c(C)c32)c1 [Trametinib] (partner 0.02 µM)
The procedure, abridged: as §1

Compound in assay [4]: O=C(CCCCCCNC(=O)c1cnc(N(c2ccccc2)c2ccccc2)nc1)NO [Ricolinostat] + CC1(C)CCC(c2ccc(Cl)cc2)=C(CN2CCN(c3ccc(C(=O)NS(=O)(=O)c4ccc(N[C@H](CCN5CCOCC5)CSc5ccccc5)c(S(=O)(=O)C(F)(F)F)c4)cc3)CC2)C1 [Navitoclax] (partner 0.5 µM)
The procedure, abridged: as §1

As for NCI-H1793, the relative viability in assay [1] (first compound 0.08 µM) came to 0.692; in assay [1] (first compound 0.253 µM) it was 0.825; in assay [1] (first compound 0.8 µM) it was 0.903; in assay [1] (first compound 2.53 µM) it was 0.902; in assay [2] (first compound 0.253 µM) it was 0.438; in assay [2] (first compound 0.8 µM), 0.355. Further, the relative viability is 0.369 in assay [2] (first compound 2.53 µM); 0.354 in assay [3] (first compound 0.08 µM); 0.738 in assay [3] (first compound 0.253 µM); 0.428 in assay [3] (first compound 0.8 µM); 0.446 in assay [3] (first compound 2.53 µM); 0.34 in assay [3] (first compound 8 µM). For the same cell line, the relative viability was found to be 0.547 in assay [4] (first compound 0.253 µM), 0.499 in assay [4] (first compound 0.8 µM) and 0.853 in assay [4] (first compound 2.53 µM).
As for NCI-H1650, the relative viability in assay [1] (first compound 0.08 µM) turned out to be 0.767; in assay [1] (first compound 0.253 µM) it was 0.632; in assay [1] (first compound 0.8 µM) it was 0.823; in assay [1] (first compound 2.53 µM), 0.579; in assay [2] (first compound 0.08 µM) it was 0.338; in assay [2] (first compound 0.253 µM), 0.408. The relative viability in assay [2] (first compound 0.8 µM) came to 0.445; in assay [2] (first compound 2.53 µM), 0.218; in assay [3] (first compound 0.08 µM), 0.639; in assay [3] (first compound 0.253 µM) it was 0.495; in assay [3] (first compound 0.8 µM), 0.524; in assay [3] (first compound 2.53 µM), 0.597. Besides, the relative viability in assay [3] (first compound 8 µM) amounted to 0.42; in assay [4] (first compound 0.08 µM), 0.948; in assay [4] (first compound 0.253 µM), 1.19; in assay [4] (first compound 0.8 µM), 1.12; in assay [4] (first compound 2.53 µM), 0.82.
Consider NCI-H1651, for which the relative viability in assay [1] (first compound 0.08 µM) came to 0.194; in assay [1] (first compound 0.253 µM), 0.174; in assay [1] (first compound 0.8 µM), 0.184; in assay [1] (first compound 2.53 µM), 0.164; in assay [2] (first compound 0.08 µM) it was 0.318; in assay [2] (first compound 0.253 µM) it was 0.352. Further, the relative viability amounted to 0.311 in assay [2] (first compound 0.8 µM); 0.365 in assay [2] (first compound 2.53 µM); 0.895 in assay [3] (first compound 0.08 µM); 0.875 in assay [3] (first compound 0.253 µM); 0.809 in assay [3] (first compound 0.8 µM); 0.858 in assay [3] (first compound 2.53 µM). The relative viability in assay [3] (first compound 8 µM) worked out at 0.677; in assay [4] (first compound 0.08 µM) it was 0.913; in assay [4] (first compound 0.253 µM), 0.993; in assay [4] (first compound 0.8 µM), 1.02; in assay [4] (first compound 2.53 µM), 0.854.
For the cell line NCI-H1299, the relative viability is 0.95 in assay [1] (first compound 0.08 µM); 0.914 in assay [1] (first compound 0.253 µM); 0.942 in assay [1] (first compound 0.8 µM); 0.91 in assay [1] (first compound 2.53 µM); 0.987 in assay [4] (first compound 0.08 µM); 0.987 in assay [4] (first compound 0.253 µM). Besides, the figures for the relative viability in assay [4] (first compound 0.8 µM) and in assay [4] (first compound 2.53 µM) were 1.02 and 1.01, respectively.
Regarding NCI-H661, the relative viability in assay [1] (first compound 0.08 µM) came to 0.654; in assay [1] (first compound 0.253 µM), 0.75; in assay [1] (first compound 0.8 µM), 0.706; in assay [1] (first compound 2.53 µM), 0.558; in assay [2] (first compound 0.08 µM), 0.27; in assay [2] (first compound 0.253 µM), 0.285. Moreover, the relative viability in assay [2] (first compound 0.8 µM) was 0.262; in assay [2] (first compound 2.53 µM) it was 0.302; in assay [3] (first compound 0.08 µM), 0.5; in assay [3] (first compound 0.253 µM), 0.573; in assay [3] (first compound 0.8 µM), 0.603; in assay [3] (first compound 2.53 µM), 0.569. The relative viability in assay [3] (first compound 8 µM) came out at 0.501.
For SW 900, the relative viability in assay [1] (first compound 0.08 µM) turned out to be 0.845; in assay [1] (first compound 0.253 µM) it was 0.836; in assay [1] (first compound 0.8 µM) it was 0.853; in assay [1] (first compound 2.53 µM), 0.621; in assay [2] (first compound 0.08 µM), 0.441; in assay [2] (first compound 0.253 µM), 0.635. Moreover, the relative viability in assay [2] (first compound 0.8 µM) amounted to 0.433; in assay [2] (first compound 2.53 µM), 0.48; in assay [3] (first compound 0.253 µM), 1.06; in assay [3] (first compound 0.8 µM), 0.947; in assay [3] (first compound 2.53 µM), 0.762; in assay [3] (first compound 8 µM), 0.646.
On to NCI-H1703, for which the relative viability was found to be 0.426 in assay [1] (first compound 0.253 µM); 0.332 in assay [1] (first compound 0.8 µM); 0.458 in assay [1] (first compound 2.53 µM); 0.978 in assay [4] (first compound 0.253 µM); 1.05 in assay [4] (first compound 0.8 µM); 1.54 in assay [4] (first compound 2.53 µM).
As for NCI-H522, the relative viability in assay [1] (first compound 0.08 µM) was determined as 0.61; in assay [1] (first compound 0.253 µM) it was 0.651; in assay [1] (first compound 0.8 µM) it was 0.606; in assay [1] (first compound 2.53 µM), 0.676; in assay [2] (first compound 0.08 µM), 0.609; in assay [2] (first compound 0.253 µM) it was 0.559. In addition, the relative viability in assay [2] (first compound 0.8 µM) amounted to 0.704; in assay [2] (first compound 2.53 µM), 0.829; in assay [3] (first compound 0.08 µM) it was 1; in assay [3] (first compound 0.253 µM), 0.784; in assay [3] (first compound 0.8 µM), 0.827; in assay [3] (first compound 2.53 µM) it was 0.687. Also, the relative viability in assay [3] (first compound 8 µM) worked out at 0.718.
With NCI-H1623, the relative viability was found to be 0.559 in assay [2] (first compound 0.08 µM), 0.582 in assay [2] (first compound 0.253 µM), 0.557 in assay [2] (first compound 0.8 µM) and 0.556 in assay [2] (first compound 2.53 µM).
Calu-6: the relative viability in assay [1] (first compound 0.08 µM) is 0.548; in assay [1] (first compound 0.253 µM), 0.526; in assay [1] (first compound 0.8 µM), 0.562; in assay [1] (first compound 2.53 µM) it was 0.419; in assay [4] (first compound 0.08 µM), 0.801; in assay [4] (first compound 0.253 µM), 0.852. The relative viability in assay [4] (first compound 0.8 µM) amounted to 0.803; in assay [4] (first compound 2.53 µM) it was 0.783.
As to NCI-H650, the relative viability in assay [1] (first compound 0.08 µM) was 0.376; in assay [1] (first compound 0.253 µM) it was 0.34; in assay [1] (first compound 0.8 µM), 0.278; in assay [1] (first compound 2.53 µM) it was 0.22; in assay [2] (first compound 0.08 µM) it was 0.373; in assay [2] (first compound 0.253 µM), 0.454. Further, the relative viability in assay [2] (first compound 0.8 µM) was 0.397; in assay [2] (first compound 2.53 µM), 0.281; in assay [3] (first compound 0.08 µM), 1.11; in assay [3] (first compound 0.253 µM) it was 1.01; in assay [3] (first compound 0.8 µM) it was 0.991; in assay [3] (first compound 2.53 µM) it was 1.02. Besides, the relative viability in assay [3] (first compound 8 µM) worked out at 0.987.
Regarding EBC-1, the relative viability is 0.638 in assay [1] (first compound 0.08 µM); 0.618 in assay [1] (first compound 0.253 µM); 0.571 in assay [1] (first compound 0.8 µM); 0.352 in assay [1] (first compound 2.53 µM); 0.375 in assay [4] (first compound 0.08 µM); 0.358 in assay [4] (first compound 0.253 µM). Besides, the relative viability stood at 0.304 in assay [4] (first compound 0.8 µM) and 0.172 in assay [4] (first compound 2.53 µM).
For the cell line NCI-H358, the relative viability in assay [1] (first compound 0.08 µM) was 0.444; in assay [1] (first compound 0.253 µM), 0.57; in assay [1] (first compound 0.8 µM), 0.61; in assay [1] (first compound 2.53 µM), 0.652; in assay [2] (first compound 0.08 µM) it was 0.265; in assay [2] (first compound 0.253 µM), 0.362. In addition, the relative viability in assay [2] (first compound 0.8 µM) is 0.424; in assay [2] (first compound 2.53 µM), 0.432; in assay [3] (first compound 0.08 µM), 0.13; in assay [3] (first compound 0.253 µM), 0.149; in assay [3] (first compound 0.8 µM), 0.131; in assay [3] (first compound 2.53 µM), 0.135. In addition, the relative viability in assay [3] (first compound 8 µM) was 0.14.
